Measurements reported in article PMC10589313 (Nature Communications, 2023).
Where “and” joins values, the source holds several entries; their conditions need not be identical. Equal entries are not always repeated.

Key:
[1] = molecular target: T1, human H4R C98A mutant (Homo sapiens, UniProt Q9H3N8, C98A); test: TGFα shedding assay, H4R C98A mutant; assay type: cell-based
T1 construct: a mutant H4R (human, full-length, and untagged); expressed in transfected cells; host or cells: HEK293A
Description: (§1) The mutants were prepared using the primers listed in Supplementary Table 2. […] The chimeric Gαq/i1 subunit comprises the Gαq backbone and Gαi1-derived six-amino acid C-terminus and couples with Gi-coupled H4R but induces a Gq-dependent TGFα shedding response. After culturing for 1 day and incubating at 37 °C in a 5% CO2 incubator, the transfected cells were harvested by trypsinization, neutralized with Dulbecco’s modified Eagle’s medium containing 10% fetal calf serum (FCS) and penicillin–streptomycin, washed once with Hank’s balanced salt solution (HBSS) containing 5 mM of HEPES (pH 7.4), and resuspended in 6 mL of the HEPES-containing HBSS. The cell suspension was seeded into a 96-well plate at a volume of […] per well (typically, 48 wells per transfected cells) and incubated for 30 min in the CO2 incubator. Test compounds (10×, diluted in 0.01% BSA and 5 mM of HEPES-containing HBSS, […] volume) were added to duplicate wells and incubated for 1 h. After centrifugation, the conditioned medium ([…]) was transferred to an empty 96-well plate. AP reaction solution [10 mM of p-nitrophenylphosphate (p-NPP), 120 mM of Tris–HCl (pH 9.5), 40 mM of NaCl, and 10 mM of MgCl2] was dispensed into the cell culture plates and plates containing conditioned media ([…]). Absorbance was measured at 405 nm before and after a 1-h incubation period at 25 °C using a microplate reader (iMark™ Microplate Absorbance Reader; BioRad). Ligand-induced AP-TGFα release was calculated as previously described. The vehicle-treated AP-TGFα release signal was set as a baseline unless otherwise specified. AP-TGFα release signals were fitted with a four-parameter sigmoidal concentration-response curve, from which EC50 and Emax values were obtained, using GraphPad Prism 9 software (GraphPad Prism). Negative values of logarithmically transformed EC50 values (pEC50) were used to calculate the mean and standard error of independent experiments.
(§2) All functional study data were analyzed using Prism 9 (GraphPad) and are presented as mean ± standard error of the mean (SEM) of three independent experiments. Statistical analyses were performed using Prism 9 (GraphPad) with one-way analysis of variance followed by Dunnett’s post-hoc test. Values with p < 0.05 are considered statistically significant.

[2] = tested on: H2R; settings: in words; cited from earlier work
[3] = molecular target: T2, human H4R D94A mutant (Homo sapiens, UniProt Q9H3N8, D94A); test: TGFα shedding assay, H4R D94A mutant; assay type: cell-based
T2 construct: a mutant H4R (human, full-length, and untagged); expressed in transfected cells; host or cells: HEK293A
T2 sequence (Q9H3N8 whole entry D94A): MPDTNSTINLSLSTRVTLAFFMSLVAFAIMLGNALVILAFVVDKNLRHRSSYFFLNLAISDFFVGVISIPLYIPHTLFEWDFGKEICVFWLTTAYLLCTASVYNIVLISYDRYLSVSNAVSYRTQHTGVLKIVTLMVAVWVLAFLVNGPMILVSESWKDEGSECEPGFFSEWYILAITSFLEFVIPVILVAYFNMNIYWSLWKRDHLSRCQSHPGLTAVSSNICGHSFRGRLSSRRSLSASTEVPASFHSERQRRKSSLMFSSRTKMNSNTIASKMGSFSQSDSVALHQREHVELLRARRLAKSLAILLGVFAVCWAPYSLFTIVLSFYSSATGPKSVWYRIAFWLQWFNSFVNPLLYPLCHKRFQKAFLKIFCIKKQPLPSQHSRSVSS
Description: as §1
(§3) All functional study data were analyzed using Prism 9 (GraphPad) and are presented as mean ± standard error of the mean (SEM) of three independent experiments. […]

[4] = molecular target: T3, human H4R E182N mutant (Homo sapiens, UniProt Q9H3N8, E182N); test: TGFα shedding assay, H4R E182N mutant; assay type: cell-based
T3 construct: a mutant H4R (human, full-length, and untagged); expressed in transfected cells; host or cells: HEK293A
T3 sequence (Q9H3N8 whole entry E182N): as the sequence (Q9H3N8 whole entry D94A) above, with A94D, E182N counted along it
Description: as §1, §3

[5] = molecular target: T4, human H4R N147W mutant (Homo sapiens, UniProt Q9H3N8, N147W); test: TGFα shedding assay, H4R N147W mutant; assay type: cell-based; settings: for EC50: EC50 (nM)
T4 construct: a mutant H4R (human, full-length, and untagged); expressed in transfected cells; host or cells: HEK293A
T4 sequence (Q9H3N8 whole entry N147W): as the sequence (Q9H3N8 whole entry D94A) above, with A94D, N147W counted along it
Description: as §1, §2

[6] = molecular target: T5, human H4R Q347G mutant (Homo sapiens, UniProt Q9H3N8, Q347G); test: TGFα shedding assay, H4R Q347G mutant; assay type: cell-based
T5 construct: a mutant H4R (human, full-length, and untagged); expressed in transfected cells; host or cells: HEK293A
T5 sequence (Q9H3N8 whole entry Q347G): as the sequence (Q9H3N8 whole entry D94A) above, with A94D, Q347G counted along it
Description: as §1, §2

[7] = molecular target: T6, human H4R T99A mutant (Homo sapiens, UniProt Q9H3N8, T99A); test: TGFα shedding assay, H4R T99A mutant; assay type: cell-based
T6 construct: a mutant H4R (human, full-length, and untagged); expressed in transfected cells; host or cells: HEK293A
T6 sequence (Q9H3N8 whole entry T99A): as the sequence (Q9H3N8 whole entry D94A) above, with A94D, T99A counted along it
Description: as §1, §2

[8] = molecular target: T7, human wild-type H4R (Homo sapiens, UniProt Q9H3N8); test: TGFα shedding assay, wild-type H4R; assay type: cell-based; settings: EC50 (nM)
T7 construct: a mutant H4R (human, full-length, and untagged); expressed in transfected cells; host or cells: HEK293A
T7 sequence (Q9H3N8 whole entry): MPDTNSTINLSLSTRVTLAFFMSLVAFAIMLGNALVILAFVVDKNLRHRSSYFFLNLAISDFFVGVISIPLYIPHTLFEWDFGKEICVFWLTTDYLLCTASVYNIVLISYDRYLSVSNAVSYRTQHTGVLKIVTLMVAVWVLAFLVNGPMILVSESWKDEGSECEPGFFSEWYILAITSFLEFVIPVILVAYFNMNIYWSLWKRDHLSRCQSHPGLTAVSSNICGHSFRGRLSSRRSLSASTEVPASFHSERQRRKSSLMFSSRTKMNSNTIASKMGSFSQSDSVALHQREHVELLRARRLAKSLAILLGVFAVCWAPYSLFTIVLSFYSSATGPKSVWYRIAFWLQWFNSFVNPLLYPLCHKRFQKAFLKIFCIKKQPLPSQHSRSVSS
Description: as §1, §2

[9] = Imetit (M) -5 (log concentration), raw replicate values

T1 sequence (Q9H3N8 whole entry C98A): as the sequence (Q9H3N8 whole entry D94A) above, with A94D, C98A counted along it

Q: With N=C(N)SCCc1cnc[nH]1 [Imetit, imetit] as the compound, how does the EC50 ([1]; C98A mutant) read?
A: Its EC50 is 479 nM.

Q: And the fold of change ([1]; C98A mutant, EC50 relative to WT)?
A: The fold of change was 16.3 fold.

Q: What about the EC50 ([1]; EC50 (nM), C98A mutant) of the same compound?
A: Its EC50 is 486 nM.

Q: What about the “Shedding assay response, C98A” value [1, 9] of the same compound?
A: Its value is 13.5967 and 12.9858 and 12.6952 and 16.5163 and 19.8944 and 18.7443 and 18.3535 and 16.3047 and 17.1057.

Q: And the Emax ([1]; read-out: Emax (%) mean ± SEM)?
A: The Emax was 17.1 ± 1.72%.

Q: What about the “binding to H2R” value [2] of the same compound?
A: The value was “does not bind”.

Q: And the EC50 [3]?
A: Its EC50 is > 10000 nM.

Q: And the “Shedding assay response, D94A” value [3, 9]?
A: The value was -0.3449 and 0.03257 and -1.499 and 0.2405 and 1.217 and -0.1126 and 0.7155 and 3.933 and 12.3814.

Q: What about the EC50 [4] of the same compound?
A: Its EC50 is > 10000 nM.

Q: What about the “Shedding assay response, E182N” value [4, 9] of the same compound?
A: Its value is -0.3367 and 1.68 and -1.08 and 4.253 and 4.399 and 3.645 and 9.053 and 3.546 and 4.747.

Q: What about the EC50 ([5]; N147W mutant) of the same compound?
A: Its EC50 is 603 nM.

Q: And the EC50 ([5]; N147W, single experiments, source data Figure 4e-f)?
A: Its EC50 is 569 nM and 612 nM and 627 nM.

Q: And the “Shedding assay response, N147W” value [5, 9]?
A: The value was 17.8239 and 17.9174 and 17.7465 and 15.1009 and 14.2938 and 15.4251 and 18.7186 and 19.6688 and 18.9313.

Q: What about the fold of change ([5]; N147W mutant, EC50 relative to WT) of the same compound?
A: The fold of change was 20.2 fold.

Q: And the Emax ([5]; read-out: Emax (%) mean ± SEM)?
A: Its Emax is 18.4 ± 1.29%.

Q: What about the EC50 ([6]; EC50 (nM), Q347G mutant) of the same compound?
A: Its EC50 is 6.2 nM.

Q: What about the EC50 ([6]; EC50 (nM), Q347G, single experiments, source data Figure 4e-f) of the same compound?
A: The EC50 was 1.75 nM and 12.3 nM and 4.7 nM.

Q: And the “Shedding assay response, Q347G” value [6, 9]?
A: Its value is 13.312 and 10.4592 and 11.4881 and 12.2257 and 13.3616 and 12.7037 and 13.9485 and 10.6151 and 26.3814.

Q: What about the “signaling activity at mutant, in words” value ([6]; Q347G (H1R/H2R type) mutant vs wild type) of the same compound?
A: The value was “slight increase”.

Q: And the fold of change ([6]; Q347G mutant, EC50 relative to WT)?
A: Its fold of change is 0.2 fold.

Q: And the EC50 ([6]; pEC50, Q347G, single experiments, source data Figure 4e-f)?
A: Its EC50 is 12.3 nM.

Q: What about the EC50 ([6]; pEC50 mean ± SEM, Q347G mutant) of the same compound?
A: The EC50 was 4.68 nM.

Q: What about the Emax ([6]; read-out: Emax (%) mean ± SEM) of the same compound?
A: Its Emax is 12.9 ± 1.22%.

Q: What about the EC50 [7] of the same compound?
A: The EC50 was 76 nM.

Q: What about the “Shedding assay response, T99A” value [7, 9] of the same compound?
A: The value was 14.3742 and 14.7391 and 15.3687 and 10.9344 and 9.709 and 12.0103 and 13.6177 and 15.7879 and 16.7579.

Q: What about the fold of change ([7]; T99A mutant, EC50 relative to WT) of the same compound?
A: Its fold of change is 2.5 fold.

Q: And the Emax ([7]; read-out: Emax (%) mean ± SEM)?
A: The Emax was 13.7 ± 1.67%.

Q: What about the EC50 ([8]; WT H4R) of the same compound?
A: Its EC50 is 29.9 nM.

Q: What about the EC50 ([8]; hH4R, single experiments (3 columns), source data Figure 4e-f) of the same compound?
A: The EC50 was 30.7 nM and 23 nM.
